Assay results reported in ChEMBL document CHEMBL1201862, “PubChem BioAssay data set” (2004).
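Cells were grown in 96-well plates and exposed to each compound for 48 hours at five concentrations; endpoints were interpolated linearly between bracketing concentrations, or set to the highest concentration if not reached. Abbreviation: GI50, concentration required for 50% inhibition of growth.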 Calls of active or inactive are those of the source. No stated cut-off is given here; in the data, active = GI50 up to about 1.1 µM and inactive = higher.

Experiments:
Assay in all cases: growth of human tumour cells (NCI), 48 h
MDA-MB-231 = test system: MDA-MB-231
HCT-116 = test system: HCT-116
NCI-H522 = test system: NCI-H522
TK-10 = test system: TK-10
SF-539 = test system: SF-539
NCI/ADR-RES = test system: NCI/ADR-RES
U-251 = test system: U-251
SN12C = test system: SN12C
EKVX = test system: EKVX
HT-29 = test system: HT-29
IGROV-1 = test system: IGROV-1
OVCAR-3 = test system: OVCAR-3
HL-60 = test system: HL-60
T47D = test system: T47D
CCRF-CEM = test system: CCRF-CEM
COLO 205 = test system: COLO 205
SW-620 = test system: SW-620
DU-145 = test system: DU-145
KM12 = test system: KM12
HCC 2998 = test system: HCC 2998

Measured: GI50

Nc1c(C(=O)Nc2ccc([As](=O)(O)O)cc2)cnc2nnnn12
inactive: MDA-MB-231 > 100 µM | HCT-116 > 100 µM | NCI-H522 > 100 µM | TK-10 > 100 µM | SF-539 > 100 µM | NCI/ADR-RES > 100 µM | U-251 > 100 µM | SN12C > 100 µM | EKVX > 100 µM | HT-29 > 100 µM | IGROV-1 > 100 µM | OVCAR-3 > 100 µM | HL-60 > 100 µM | T47D > 100 µM | CCRF-CEM > 100 µM | COLO 205 > 100 µM | SW-620 > 100 µM | DU-145 > 100 µM | KM12 > 100 µM | HCC 2998 > 100 µM

COc1cc2c(cc1OC)C1(c3ccccc3)CN(C2)Cc2cc(OC)c(OC)cc21
inactive: MDA-MB-231 24.3 µM | HCT-116 24.9 µM | NCI-H522 26.2 µM | TK-10 44.7 µM | SF-539 19.3 µM | NCI/ADR-RES 25.4 µM | U-251 22.2 µM | SN12C > 100 µM | EKVX 55.5 µM | HT-29 29 µM | IGROV-1 35.2 µM | OVCAR-3 54.6 µM | HL-60 19.3 µM | T47D 35.6 µM | CCRF-CEM 15.6 µM | COLO 205 17.1 µM | SW-620 33.6 µM | DU-145 33.7 µM | KM12 30.8 µM | HCC 2998 21.8 µM

NC(=O)CCSC(CC(=O)c1ccc(Cl)cc1)c1ccc(Cl)cc1 (stereo not given)
inactive: MDA-MB-231 40.2 µM | HCT-116 14.7 µM | NCI-H522 23.2 µM | TK-10 48 µM | SF-539 19.7 µM | NCI/ADR-RES 22.8 µM | U-251 16.2 µM | SN12C 28.2 µM | EKVX 28.2 µM | HT-29 19.9 µM | IGROV-1 16.2 µM | OVCAR-3 19.2 µM | HL-60 6.97 µM | T47D 19.1 µM | CCRF-CEM 2.93 µM | COLO 205 33 µM | SW-620 3.08 µM | DU-145 27.5 µM | KM12 6.11 µM | HCC 2998 18.2 µM

CCCCCCc1ccc(C(=O)NO)cc1
inactive: MDA-MB-231 95.7 µM | HCT-116 29.6 µM | NCI-H522 11.3 µM | TK-10 51.5 µM | SF-539 49.8 µM | NCI/ADR-RES 15.3 µM | U-251 38.8 µM | SN12C 21.9 µM | EKVX 37.8 µM | HT-29 36 µM | IGROV-1 24.5 µM | OVCAR-3 30.3 µM | HL-60 16.5 µM | T47D 19.5 µM | CCRF-CEM 6.92 µM | COLO 205 41.5 µM | SW-620 64.4 µM | DU-145 24.8 µM | KM12 44.9 µM | HCC 2998 65.2 µM
